{"source": "paper PMC12867150", "about": "“A fungi-derived cyclic peptide enhances Th9-mediated antitumor immunity by targeting ZAP70 and SREBP1” (The Journal of Clinical Investigation, 2025)", "test_system": "PD-1 on T cells", "test": "PD-1 expression on donor Th9 and endogenous CD8+/CD4+ T cells from spleens (S4J-L)", "format": "in vivo, mouse", "details": "for Expression of PD-1 of transferred CD45.1⁺ OT-II Th9 cells in spleen: Supplemental Figure 4J; for Expression of PD-1 of endogenous CD8⁺ T cells in spleen: Supplemental Figure 4K; for Expression of PD-1 of endogenous CD4⁺ T cells in spleen: Supplemental Figure 4L", "method": "C57BL/6 mice were subcutaneously injected with 5 × 10^5 B16-OVA melanoma cells. Five days after tumor implantation, mice received an intravenous infusion of 2 × 10^6 in vitro–differentiated Th9 cells (cultured for 5 days), which were derived from OT-II CD45.1 donor mice, accompanied by 4 × 10^5 OVA peptide–pulsed DCs via the tail vein. To enhance T cell engraftment and facilitate lymphodepletion, a single intraperitoneal injection of cyclophosphamide (200 mg/kg, Sigma, catalog C0768) was administered 1 day prior to T cell transfer. Mice were euthanized at designated time points for the collection and analysis of spleens, tumor-draining lymph nodes, and tumor tissues.\nDetails regarding staining panels (human and mouse), reagents (including clones and catalog numbers), acquisition settings, compensation/controls, and analysis procedures are provided in Supplemental Methods.\nCD45.1+ T Cells in Tumors\nCtrlEpA Ctrl EpA GzmB Ctrl EpA\nCtrlEpA CtrlEpA GzmB Ctrl EpA\nJ CD45.1+ T Cells in Spleens K CD8+ T Cells in Spleens L CD4+ T Cells in Spleens […]\nPD-1 0 CtrlEpA PD-1 0 CtrlEpA PD-1 0 CtrlEpA […]\ncells and endogenous T cells.\n(A–C) Mean fluorescence intensity (MFI) of IFN-γ (A) and TNF-α (B), and representative flow-cytometric plots with quantification of Granzyme B⁺ Perforin⁺ cells (C) among adoptively transferred CD45.1⁺ Th9 cells in tumors. (D–F) MFI of IFN-γ (D) and TNF-α (E), and representative plots with quantification of Granzyme B⁺ Perforin⁺ cells (F) among tumor-infiltrating CD8⁺ T cells. (G–I) MFI of IFN-γ (G) and TNF-α (H), and representative plots with quantification of Granzyme B⁺ Perforin⁺ cells (I) among tumor-infiltrating CD4⁺ T cells. (J–L) PD-1 expression in adoptively transferred CD45.1⁺ Th9 cells (J), endogenous CD8⁺ T cells (K), and endogenous CD4⁺ T cells (L) from spleens of tumor-bearing mice. Data in (A–L) are shown as mean ± SEM from n = 4 mice per group. Statistical analysis was performed using two-tailed unpaired Student’s t-test (A–L). ns, not significant. *p < 0.05, **p […]\n(also on this page, place not known: IFN -γ MFIofTNF-α CtrlEpACtrlEpA MFIofIFN-γ 1500MFIofTNF-α MFIofIFN-γ 800MFIofTNF-α CtrlEpA0 CtrlEpA0 CtrlEpA0 MFI of (×103Ď CtrlEpA0 MFI of PD-1 (×103) MFI of PD-1 (×103) CtrlEpAPD-1 HG FE GzmB+ PRF1+ of CD45.1+ cells (%) GzmB+ PRF1+ of CD8+ cells (%) GzmB+ PRF1+ of CD4+ cells (%) PRF1 PRF1 PRF1 0.3887.5 MFIofIFN-γ) […]"}
{"substance": "anteiso-C15 Leu7 surfactin [EpA]", "values": [{"measurement": "PD-1 expression", "setting": "donor Th9 and endogenous T cells, result in words", "value": "comparable between groups"}, {"measurement": "Expression of PD-1 of transferred CD45.1⁺ OT-II Th9 cells in spleen", "setting": "replicate 1", "value": 5868}, {"measurement": "Expression of PD-1 of transferred CD45.1⁺ OT-II Th9 cells in spleen", "setting": "replicate 2", "value": 7923}, {"measurement": "Expression of PD-1 of transferred CD45.1⁺ OT-II Th9 cells in spleen", "setting": "replicate 3", "value": 10955}, {"measurement": "Expression of PD-1 of transferred CD45.1⁺ OT-II Th9 cells in spleen", "setting": "replicate 4", "value": 4100}, {"measurement": "Expression of PD-1 of endogenous CD8⁺ T cells in spleen", "setting": "replicate 1", "value": 1931}, {"measurement": "Expression of PD-1 of endogenous CD8⁺ T cells in spleen", "setting": "replicate 2", "value": 1939}, {"measurement": "Expression of PD-1 of endogenous CD8⁺ T cells in spleen", "setting": "replicate 3", "value": 2374}, {"measurement": "Expression of PD-1 of endogenous CD8⁺ T cells in spleen", "setting": "replicate 4", "value": 1655}, {"measurement": "Expression of PD-1 of endogenous CD4⁺ T cells in spleen", "setting": "replicate 1", "value": 6299}, {"measurement": "Expression of PD-1 of endogenous CD4⁺ T cells in spleen", "setting": "replicate 2", "value": 5672}, {"measurement": "Expression of PD-1 of endogenous CD4⁺ T cells in spleen", "setting": "replicate 3", "value": 6004}, {"measurement": "Expression of PD-1 of endogenous CD4⁺ T cells in spleen", "setting": "replicate 4", "value": 4982}]}
